Test results as given in the supplement of paper PMC10307832.

Tests used:
Assay in all cases: relative viability (nuclei count vs DMSO), 5 days (fraction); higher = more cells survive
Zosuquidar = compound: O[C@@H](COc1cccc2ncccc12)CN1CCN([C@@H]2c3ccccc3[C@@H]3[C@H](c4ccccc42)C3(F)F)CC1 [Zosuquidar]
In short: (§1)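 Viability here means nuclei in treated wells divided by nuclei in vehicle wells, reported as the median across plates. Only plates with control CV below 25% and at least one doubling passed. Lung cancer cell lines in 1536-well plates were exposed to five √10-spaced library-drug doses for 5 days and counted from 4× Hoechst images in MetaXpress.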

Kobe2602 = compound: C1=CC(=CC=C1NC(=S)NNC2=C(C=C(C=C2[N+](=O)[O-])C(F)(F)F)[N+](=O)[O-])F [Kobe2602]
In short: as §1

Cabozantinib = compound: COc1cc2nccc(Oc3ccc(NC(=O)C4(C(=O)Nc5ccc(F)cc5)CC4)cc3)c2cc1OC [Cabozantinib]
In short: as §1

Kobe2602 + Trametinib = compound: C1=CC(=CC=C1NC(=S)NNC2=C(C=C(C=C2[N+](=O)[O-])C(F)(F)F)[N+](=O)[O-])F [Kobe2602] + CC(=O)Nc1cccc(-n2c(=O)n(C3CC3)c(=O)c3c(Nc4ccc(I)cc4F)n(C)c(=O)c(C)c32)c1 [Trametinib] (partner 0.02 µM)
In short: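 Lung cancer cell lines in 1536-well plates got either a single drug or a fixed anchor-drug dose together with five library-drug doses (not always all listed) in √10 steps, by pin tool, on the day after seeding. Nuclei were counted after 5 days, and relative viability is the treated-to-vehicle ratio of nuclei counts. Values are medians of duplicate plates.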

Row | Cell Line | relative viability (Zosuquidar; 0.01 µM) | relative viability (Zosuquidar; 0.03162 µM) | relative viability (Zosuquidar; 0.1 µM) | relative viability (Zosuquidar; 0.3162 µM) | relative viability (Zosuquidar; 1 µM) | relative viability (Kobe2602; 0.2 µM) | relative viability (Kobe2602; 0.6325 µM) | relative viability (Kobe2602; 2 µM) | relative viability (Kobe2602; 6.325 µM) | relative viability (Kobe2602; 20 µM) | relative viability (Cabozantinib; 0.02 µM) | relative viability (Cabozantinib; 0.06325 µM) | relative viability (Cabozantinib; 0.2 µM) | relative viability (Cabozantinib; 0.6325 µM) | relative viability (Cabozantinib; 2 µM) | relative viability (Kobe2602 + Trametinib; first compound 0.2 µM) | relative viability (Kobe2602 + Trametinib; first compound 0.6325 µM) | relative viability (Kobe2602 + Trametinib; first compound 2 µM) | relative viability (Kobe2602 + Trametinib; first compound 6.325 µM) | relative viability (Kobe2602 + Trametinib; first compound 20 µM)
1 | HCC-44 | 1.01 | 1.03 | 0.987 | 1.05 | 0.978 | 0.982 | 1.02 | 0.974 | 0.958 | 0.942 | 1.01 | 1.05 | 1.04 | 1.06 | 1.01 | 1.04 | 1.16 | 1.02 | 0.939 | 0.967
2 | NCI-H522 | 1.01 | 0.809 | 0.955 | 1.06 | 0.907 | 1.08 | 1.11 | 0.997 | 0.895 | 0.979 | 0.863 | 0.98 | 0.897 | 0.98 | 1.15 | 0.9 | 0.947 | 0.736 | 0.742 | 0.723
3 | ChaGo-K-1 | 1.02 | 0.998 | 0.978 | 1.02 | 0.999 | 1.09 | 1.04 | 0.946 | 0.979 | 0.972 | 1.06 | 1.05 | 1 | 0.909 | 1.01 | 0.883 | 0.884 | 0.912 | 0.769 | 0.855
4 | COR-L23 | 1.06 | 1.11 | 1.02 | 1.1 | 1.06 | 0.95 | 1.06 | 1.09 | 1.09 | 0.95 | 1.11 | 1.04 | 0.993 | 1 | 1.07 | 0.569 | 0.587 | 0.575 | 0.549 | 0.679
5 | EMC-BAC-2 | 1.01 | 0.955 | 0.89 | 1.12 | 0.73 | 1.02 | 1.26 | 0.947 | 1.12 | 0.999 | 0.776 | 1.1 | 1.15 | 1.04 | 1.01 | 0.822 | 0.874 | 0.898 | 0.91 | 0.807
6 | LCLC-103H | 0.911 | 0.973 | 0.752 | 1.02 | 1.06 | 1.01 | 1.01 | 0.987 | 0.992 | 0.981 | 0.824 | 1.16 | 1.02 | 1.05 | 0.953 | 0.651 | 0.731 | 0.674 | 0.73 | 0.644
7 | NCI-H1395 | 0.914 | 0.869 | 0.717 | 1.18 | 0.891 | 0.978 | 1.22 | 0.893 | 1.06 | 0.976 | 0.797 | 1.23 | 1.01 | 0.938 | 0.815 | 0.991 | 1.06 | 1.03 | 0.989 | 1.19
